27 compounds from patent publication US20240092745A1, “DRUGS AND COMPOSITIONS FOR THE TREATMENT OF OCULAR DISORDERS” (Graybug Vision, Inc., priority 2017, published 2024) can be followed below.

This series in a line: Determination of drug solubility in aqueous and organic solvent.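 As to all read-outs here: solid drug suspended at 50 mg/mL nominal in each solvent, vortexed and sonicated, then dissolved concentration in filtered supernatant quantified by HPLC against a calibration curve.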 The format is physicochemical. The conditions noted are these: for solubility: thermodynamic from solid.
The mark [1] stands for this setting: organic solvent or mixture, Table 3A, DMSO, read-out: Solubility DMSO.
Where [2] appears, read: Table 3A, water, drug added to 50 mg/mL, read-out: Solubility Water.
The mark [3] stands for this setting: organic solvent or mixture, Table 3B, DMSO, read-out: Solubility DMSO.
Setting [4] is: Table 3B, water, drug added to 50 mg/mL, read-out: Solubility Water.
Setting [5] is: organic solvent or mixture, Table 3A, DCM, read-out: Solubility DCM.
The mark [6] stands for this setting: Table 3B, water, drug added to 50 mg/mL.
Setting [7] is: Table 3A, water, drug added to 50 mg/mL.

≈ marks a conversion by molar mass, not a printed value. Counter-ions that a name gives are not always drawn. Like-named read-outs stand apart in the source and are kept apart here.

Procedure: For each test, approximately 5-10 mg was transferred to a 10 mL glass vial. Aqueous or organic solvent was added to each vial to achieve an overall concentration of 50 mg/mL. After vortexing aggressively for 2-3 minutes and sonicating in a bath sonicator for 5 minutes, undissolved drug was spun down at 1200 rpm for 5 minutes to generate a pellet. The supernatant was collected and filtered through a 0.2 μm nylon syringe filter into HPLC vials for drug content analysis. Drug concentration was determined by comparing against a standard calibration curve.

As for `CC(=O)OC(C)C(=O)OC(C)C(=O)OC(C)C(=O)OC(C)C(=O)N1CCN(C(C)=O)C1=Nc1ccc2nccnc2c1Br` (stereo not shown) [Compound 115-1, Brimonidine-acetyl PLA(n=4)-N-Acetate], the solubility (usually the dissolved amount per volume that the medium holds) was 100 mg/mL (≈ 150 mM) under setting [1] and under 0.2 mg/mL under setting [2].
For the compound `CCCCC/C=C\C/C=C\CCCCCCCC(=O)O[C@@H](CNC(C)(C)C)COc1nsnc1N1CCOCC1.Cl` [Compound 71-1, Timolol-O-Linoleic Acid-HCl], the solubility under setting [3] is over 50 mg/mL and the solubility under setting [4] was over 25 mg/mL.
The like results for `CC(=O)OC(C)C(=O)OC(C)C(=O)OC(C)C(=O)OC(C)C(=O)O[C@H](COc1nsnc1N1CCOCC1)CN(C(=O)C(C)OC(=O)C(C)OC(C)=O)C(C)(C)C` (stereo partly shown) [Compound 230, Timolol-bis-N-acetyl-PLA(n=2)-O-acetyl PLA(n=4)] were, in that order, over 50 mg/mL and under 0.007 mg/mL.
Turning to `CC/C=C\C/C=C\C/C=C\C/C=C\C/C=C\C/C=C\CCC(=O)O[C@@H](CNC(C)(C)C)COc1nsnc1N1CCOCC1.O=C(O)/C=C\C(=O)O` [Compound 53-3, (4Z,7Z,10Z,13Z,16Z,19Z)-Docosa-4,7,10,13,16,19-hexaenoic acid (S)-1-(tert-butylamino-methyl)-2-(4-morpholin-4-yl-[1,2,5]thiadiazol-3-yloxy)-ethylester maleate], the solubility runs as follows: under setting [3], over 100 mg/mL; under setting [4], under 1 mg/mL.
As for `CCCCCCCCCCCCCCCCCC(=O)O[C@@H](C)C(=O)O[C@@H](C)C(=O)O[C@@H](C)C(=O)O[C@@H](C)C(=O)NS(=O)(=O)c1cc2c(s1)S(=O)(=O)C(C)CC2NCC` (stereo partly drawn) [Compound 12-3, Octadecanoic acid (S)-1-((S)-1-{(S)-1-[(S)-2-(4-ethylamino-6-methyl-7,7-dioxo-4,5,6,7-tetrahydro-7λ*6*-thieno[2,3-b]thiopyran-2-sulfonylamino)-1-methyl-2-oxo-ethoxycarbonyl]-ethoxycarbonyl}-ethoxycarbonyl)-ethyl ester], the solubility is over 50 mg/mL under setting [5], over 50 mg/mL under setting [1] and under 0.1 mg/mL under setting [2].
Turning to `COc1cccc(CN(CCO)C(=O)Nc2ccc(-c3cn[nH]c3)cc2)c1` [SR5834, 1-(2-hydroxyethyl)-1-[(3-methoxyphenyl)methyl]-3-[4-(1H-pyrazol-4-yl)phenyl]urea, reference compound], the solubility by setting is: under setting [3], over 100 mg/mL; under setting [4], under 1 mg/mL.
Consider `CC(=O)O[C@@H](C)C(=O)O[C@@H](C)C(=O)N1CCN=C1Nc1ccc2nccnc2c1Br` [Compound 25-2, (S)-2-Acetoxy-propionic acid (S)-2-[2-(5-bromo-quinoxalin-6-ylamino)-4,5-dihydro-imidazol-1-yl]-1-methyl-2-oxo-ethyl ester], for which the solubility reads like this: under setting [1], over 50 mg/mL; under setting [2], under 1 mg/mL.
“Timolol-Bis-Acetyl-PLA (n = 4) [Compound 119-1]”: the “Solubility DMSO” value (Table 3B, DMSO) is recorded as over 50 mg/mL. Under setting [6], the “Solubility Water” value is under 0.05 µg/mL.
Regarding `CC/C=C\C/C=C\C/C=C\C/C=C\C/C=C\C/C=C\CCC(=O)NS(=O)(=O)c1cc2c(s1)S(=O)(=O)[C@@H](C)C[C@@H]2NCC` [Compound 80-3, (4S,6S)-4-Ethylamino-6-methyl-7,7-dioxo-4,5,6,7-tetrahydro-7lambda*6*-thieno[2,3-b]thiopyran-2-sulfonic acid ((4Z,7Z,10Z,13Z,16Z,19Z)-docosa-4,7,10,13,16,19-hexanoyl)-amide], the solubility is, setting by setting: (organic solvent or mixture, Table 3B, DCM, read-out: Solubility DCM) over 50 mg/mL; under setting [3], over 100 mg/mL; under setting [4], under 1 mg/mL.
As to `CC/C=C\C/C=C\C/C=C\C/C=C\C/C=C\C/C=C\CCC(=O)O[C@H](COc1nsnc1N1CCOCC1)CN(C(C)=O)C(C)(C)C` [Compound 68-1, N-Acyl-Timolol-DHA], the solubility is over 100 mg/mL under setting [3] and under 1 mg/mL under setting [4].
`COc1cccc(CN(CCO)C(=O)Nc2ccc(-c3cn[nH]c3)cc2OCCN2CCCC2)c1` [RKI-H-1y, 1-(2-hydroxyethyl)-1-[(3-methoxyphenyl)methyl]-3-[4-(1H-pyrazol-4-yl)-2-[2-(pyrrolidin-1-yl)ethoxy]phenyl]urea, reference compound]: the solubility is, setting by setting: under setting [3], over 100 mg/mL; under setting [4], under 1 mg/mL.
For `CCCCCCCCCCCCCCCCCC(=O)O[C@@H](C)C(=O)O[C@@H](C)C(=O)O[C@@H](C)C(=O)O[C@@H](C)C(=O)O[C@H](COc1nsnc1N1CCOCC1)CN(C(C)=O)C(C)(C)C` [Compound 67-1, N-Acyl-Timolol-PLA (n = 4) Stearate], in that order: 70 mg/mL (≈ 76.7 mM) and under 1 mg/mL.
`CC(=O)O[C@@H](C)C(=O)O[C@@H](C)C(=O)O[C@@H](C)C(=O)O[C@@H](C)C(=O)N1CCN(C(=O)[C@H](C)OC(=O)[C@H](C)OC(=O)[C@H](C)OC(=O)[C@H](C)OC(C)=O)C1=Nc1ccc2nccnc2c1Br` [Compound 116-1, Brimonidine-bis-acetyl PLA(n=4)]: under setting [1], the solubility came out at 100 mg/mL (≈ 105 mM).
In the case of `CC(=O)OC(C)C(=O)OC(C)C(=O)OC(C)C(=O)OC(C)C(=O)N(C[C@@H](COc1nsnc1N1CCOCC1)OC(=O)C(C)OC(=O)C(C)OC(C)=O)C(C)(C)C` (stereo partly shown) [Compound 229, Timolol-bis-N-acetyl-PLA(n=4)-O-acetyl PLA(n=2)], the solubility by setting is: under setting [3], over 50 mg/mL; under setting [4], under 0.006 mg/mL.
Turning to `CCN(CC)CCNC(=O)c1c(C)[nH]c(/C=C2\C(=O)Nc3ccc(N)cc32)c1C` [5-Amino Sunitinib, 5-[5-Amino-2-oxo-1,2-dihydro-indol-(3Z)-ylidenemethyl]-2,4-dimethyl-1H-pyrrole-3-carboxylic acid (2-diethylamino-ethyl)-amide, reference compound], the solubility was over 50 mg/mL under setting [1] and under 1 mg/mL under setting [2].
For `CC(C)(C)NC[C@@H](COc1nsnc1N1CCOCC1)OC(=O)CCC(=O)O[C@@H](CNC(C)(C)C)COc1nsnc1N1CCOCC1.O=C(O)/C=C\C(=O)O` [Compound 76-4, Timolol-succinic acid-Timolol-maleate], the solubility was over 100 mg/mL under setting [3] and over 6.25 mg/mL under setting [4].
With `CCCCCCCCCCCCCCCCCC(=O)O[C@@H](C)C(=O)O[C@@H](C)C(=O)O[C@@H](C)C(=O)O[C@@H](C)C(=O)O[C@@H](C)C(=O)O[C@@H](C)C(=O)O[C@@H](CNC(C)(C)C)COc1nsnc1N1CCOCC1` [Compound 42-2, Octadecanoic acid (S)-1-((S)-1-{(S)-1-[(S)-1-((S)-1-{(S)-1-[(S)-1-(tert-butylamino-methyl)-2-(4-morpholin-4-yl-[1,2,5]thiadiazol-3-yloxy)-ethoxycarbonyl]-ethoxycarbonyl}-ethoxycarbonyl)-ethoxycarbonyl]-ethoxycarbonyl}-ethoxycarbonyl)-ethyl ester maleate], the solubility was over 50 mg/mL under setting [1] and under 1 mg/mL under setting [2].
For the compound `CCN[C@H]1C[C@H](C)S(=O)(=O)c2sc(S(=O)(=O)NC(=O)[C@H](C)O)cc21` [Dorzolamide-PLA (n = 1), dorzolamide-PLA (n=1)], for the setting “Table 3A, DMSO”, the “Solubility DMSO” value is recorded as under 1.0 mg/mL. Moreover, under setting [7], the “Solubility Water” value is over 50000 µg/mL.
With Brinzolamide (n = 1), the “Solubility DCM” value (Table 3B, DCM) is on record as over 50 mg/mL. Besides, the “Solubility DMSO” value (Table 3B, DMSO) is listed as over 50 mg/mL. The “Solubility Water” value under setting [6] was over 50000 µg/mL.
Take `CCCCCCCCCCCCCCCCCC(=O)O[C@@H](C)C(=O)O[C@@H](C)C(=O)O[C@@H](C)C(=O)O[C@@H](C)C(=O)O[C@@H](C)C(=O)O[C@@H](C)C(=O)O[C@@H](CNC(C)(C)C)COc1nsnc1N1CCOCC1.Cl` [Compound 43-1, Octadecanoic acid (5)-1-((S)-1-{(S)-1-[(S)-1-((S)-1-{(S)-1-[(S)-1-(tert-butylamino-methyl)-2-(4-morpholin-4-yl-[1,2,5]thiadiazol-3-yloxy)-ethoxycarbonyl]-ethoxycarbonyl}-ethoxycarbonyl)-ethoxycarbonyl]-ethoxycarbonyl}-ethoxycarbonyl)-ethyl ester hydrochloride]: the “Solubility DMSO” value (Table 3A, DMSO) is recorded as over 50 mg/mL. The “Solubility Water” value under setting [7] was 6250 µg/mL. Moreover, the aqueous solubility (as a rule, the dissolved amount per volume that the medium holds) (aqueous solution) turned out to be 6.25 mg/mL.
For the compound `CC(C)OC(=O)CCC/C=C\C[C@@H]1[C@@H](CC[C@@H](O)CCc2ccccc2)[C@H](O)C[C@@H]1O` [Latanoprost, reference compound], the solubility reads like this: under setting [5], over 50 mg/mL; under setting [1], over 50 mg/mL; under setting [2], under 1 mg/mL.
For the compound `CC(=O)N(C[C@@H](COc1nsnc1N1CCOCC1)OC(=O)OC(C)(C)C)C(C)(C)C` [Compound 37-2, Timolol-O-Boc-N-acetate], the solubility is over 50 mg/mL under setting [1] and under 1 mg/mL under setting [2].
For `CC(=O)O[C@@H](C)C(=O)O[C@@H](C)C(=O)N1CCN(C(=O)[C@H](C)OC(=O)[C@H](C)OC(C)=O)C1=Nc1ccc2nccnc2c1Br` [Compound 111-4, Brimonidine-bis-acetyl PLA(n=2)], the solubility is, setting by setting: under setting [1], over 50 mg/mL; under setting [2], under 1 mg/mL.
Regarding `CC(=O)O[C@@H](C)C(=O)O[C@@H](C)C(=O)N1CCN(C(C)=O)C1=Nc1ccc2nccnc2c1Br` [Compound 114-4, Brimonidine-acetyl PLA(n=2)-N-Acetate], the solubility runs as follows: under setting [1], 100 mg/mL (≈ 192 mM); under setting [2], 1 mg/mL (≈ 1.92 mM).
`CCN(Cc1cccc(OC)c1)C(=O)Nc1ccc(-c2cn[nH]c2)cc1OCCN1CCCC1` [RKI-1y, 3-(4-(1H-pyrazol-4-yl)-2-(2-(pyrrolidin-1-yl)ethoxy)phenyl)-1-ethyl-1-(3-methoxybenzyl)urea, reference compound]: the solubility reads like this: under setting [3], over 100 mg/mL; under setting [4], under 1 mg/mL.
Take “N-acyl-Timolol-PLA (n = 2)-DHA [N-Acyl-Timolol-PLA (n = 2) DHA]”: for the setting “Table 3B, DMSO”, the “Solubility DMSO” value is listed as over 100 mg/mL. The “Solubility Water” value under setting [6] was under 1000 µg/mL.
With `CC(C)(C)NC[C@@H](COc1nsnc1N1CCOCC1)OC(=O)CCCCCCCCC(=O)O[C@@H](CNC(C)(C)C)COc1nsnc1N1CCOCC1.O=C(O)/C=C\C(=O)O` [Compound 75-1, Timolol-Sebacic Acid-Timolol Maleate], the solubility was over 100 mg/mL under setting [3] and under 1 mg/mL under setting [4].
